Assay results as given in the supplement of paper PMC12494721.
Counter-ions that a name gives are not always drawn.

Columns and labels:
Conditions in all cases: incubation time: 27 h, anaerobic, 37 °C
[1] = tested on: Escherichia coli IAI1; assay: growth (OD595) fold change vs plate DMSO controls (fold change (ratio)); higher = more growth
[2] = tested on: Escherichia coli IAI1; assay: fold change of Putrescine concentration vs plate DMSO controls (fold change (ratio)); higher = more amine produced
[3] = tested on: Escherichia coli IAI1; assay: fold change of Cadaverine concentration vs plate DMSO controls (fold change (ratio)); higher = more amine produced
[4] = tested on: Clostridium sporogenes DSM 1664; assay: growth (OD595) fold change vs plate DMSO controls (fold change (ratio)); higher = more growth
[5] = tested on: Clostridium sporogenes DSM 1664; assay: fold change of Tryptamine concentration vs plate DMSO controls (fold change (ratio)); higher = more amine produced
[6] = tested on: Ruminococcus gnavus DSM 108212; assay: growth (OD595) fold change vs plate DMSO controls (fold change (ratio)); higher = more growth
[7] = tested on: Ruminococcus gnavus DSM 108212; assay: fold change of Tryptamine concentration vs plate DMSO controls (fold change (ratio)); higher = more amine produced
[8] = tested on: Ruminococcus gnavus DSM 108212; assay: fold change of 2-Phenylethylamine concentration vs plate DMSO controls (fold change (ratio)); higher = more amine produced
[9] = tested on: Klebsiella aerogenes DSM 30053; assay: growth (OD595) fold change vs plate DMSO controls (fold change (ratio)); higher = more growth
[10] = tested on: Klebsiella aerogenes DSM 30053; assay: fold change of Histamine concentration vs plate DMSO controls (fold change (ratio)); higher = more amine produced
Experimental: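 Dose-response follow-up: bacteria (E. coli IAI1, K. aerogenes DSM 30053, C. sporogenes DSM 1664, R. gnavus DSM 108212) were grown anaerobically in mGAM at 37 °C for 27 h with compound at 0.6125-20 µM. Amines were measured in the whole culture by targeted LC-MS/MS. Metabolite fold change and OD595 fold change are relative to plate DMSO controls; n=2 biological replicates. OD fold changes are not clipped, so slightly negative values mean no growth.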

[11] = tested on: Klebsiella aerogenes DSM 30053; assay: fold change of Putrescine concentration vs plate DMSO controls (fold change (ratio)); higher = more amine produced
[12] = tested on: Klebsiella aerogenes DSM 30053; assay: fold change of Cadaverine concentration vs plate DMSO controls (fold change (ratio)); higher = more amine produced

C=CC1=C(C(=O)O)N2C(=O)[C@@H](NC(=O)/C(=N\O)c3csc(N)n3)[C@H]2SC1 [Cefdinir]
Conditions | fold change of Cadaverine concentration, [3] | fold change of Putrescine concentration, [2] | growth, [1]
0.6125 µM | 1.1 | 0.759 | 0.899
1.25 µM | 1.18 | 0.836 | 0.905
2.5 µM | 1.98 | 1.47 | 0.0538
5 µM | 0.812 | 0.282 | -0.042
10 µM | 0.533 | 0.152 | -0.0507
20 µM | 1.17 | 0.342 | -0.0475

C=CC1=C(C(=O)O)N2C(=O)[C@@H](NC(=O)/C(=N\OCC(=O)O)c3csc(N)n3)[C@H]2SC1 [Cefixime]
Conditions | fold change of Cadaverine concentration, [3] | fold change of Putrescine concentration, [2] | fold change of Tryptamine concentration, [5] | growth, [1] | growth, [4]
0.6125 µM | 1.07 | 0.815 | 0.977 | 0.848 | 1.05
1.25 µM | 1.07 | 0.897 | 0.994 | 0.903 | 1.02
2.5 µM | 1.72 | 0.839 | 0.974 | 0.859 | 0.842
5 µM | 2.01 | 2.82 | 0.937 | 0.193 | 0.82
10 µM | 2.2 | 1.37 | 0.925 | 0.0344 | 0.675
20 µM | 2.17 | 1.16 | 0.887 | -0.00514 | 0.527

CCN1CCN(C(=O)N[C@@H](C(=O)N[C@@H]2C(=O)N3C(C(=O)O)=C(CSc4nnnn4C)CS[C@H]23)c2ccc(O)cc2)C(=O)C1=O [Cefoperazone dihydrate]
Conditions | fold change of 2-Phenylethylamine concentration, [8] | fold change of Cadaverine concentration, [3] | fold change of Putrescine concentration, [2] | fold change of Tryptamine concentration, [7] | growth, [1] | growth, [6]
0.6125 µM | 0.866 | 1.07 | 0.765 | 1.01 | 0.9 | 1.55
1.25 µM | 0.808 | 1.12 | 0.851 | 0.955 | 0.914 | 1.15
2.5 µM | 0.387 | 1.82 | 3.2 | 0.568 | 0.514 | 0.937
5 µM | 0.153 | 2.14 | 1.77 | 0.22 | 0.0751 | 0.627
10 µM | 0.105 | 2.27 | 1.11 | 0.14 | 0.0151 | 0.478
20 µM | 0.0986 | 2.17 | 1.04 | 0.124 | -0.0235 | 0.345

CO/N=C(\C(=O)N[C@@H]1C(=O)N2C(C(=O)[O-])=C(C[n+]3ccn4ncccc43)CS[C@H]12)c1nsc(N)n1 [Cefozopran hydrochloride]
Conditions | fold change of 2-Phenylethylamine concentration, [8] | fold change of Cadaverine concentration, [3] | fold change of Putrescine concentration, [2] | fold change of Tryptamine concentration, [7] | growth, [1] | growth, [6]
0.6125 µM | 0.623 | 0.986 | 0.772 | 0.714 | 0.818 | 1.24
1.25 µM | 0.361 | 0.959 | 0.919 | 0.52 | 0.863 | 0.965
2.5 µM | 0.162 | 0.929 | 0.717 | 0.275 | 1.06 | 1.03
5 µM | 0.105 | 0.962 | 0.793 | 0.16 | 1.12 | 1.06
10 µM | 0.101 | 1.38 | 1.12 | 0.148 | 1.15 | 1.24
20 µM | 0.0948 | 2.16 | 2.17 | 0.135 | 0.238 | 0.529

CO/N=C(\C(=O)N[C@@H]1C(=O)N2C(C(=O)O)=C(COC(N)=O)CS[C@H]12)c1ccco1 [Cefuroxime sodium salt]
Conditions | fold change of Cadaverine concentration, [3] | fold change of Putrescine concentration, [2] | fold change of Tryptamine concentration, [5] | growth, [1] | growth, [4]
0.6125 µM | 1.11 | 0.907 | 1.01 | 0.872 | 0.8
1.25 µM | 1.13 | 0.853 | 1.01 | 0.929 | 0.69
2.5 µM | 1.09 | 0.758 | 1.04 | 1.03 | 0.755
5 µM | 2.02 | 1.11 | 0.764 | 0.923 | 0.214
10 µM | 2.06 | 2.59 | 0.0406 | 0.171 | -0.0277
20 µM | 2.13 | 1.24 | 0.0242 | 0.0264 | -0.0443

COc1c(N2CCNC(C)C2)c(F)cc2c(=O)c(C(=O)O)cn(C3CC3)c12 (stereo not given) [Gatifloxacin]
Conditions | fold change of 2-Phenylethylamine concentration, [8] | fold change of Cadaverine concentration, [12] | fold change of Histamine concentration, [10] | fold change of Putrescine concentration, [11] | fold change of Tryptamine concentration, [7] | growth, [6] | growth, [9]
0.6125 µM | 1.35 | 0.983 | 1.35 | 1.03 | 1.31 | 0.932 | 0.993
1.25 µM | 1.33 | 1.03 | 0.852 | 1.2 | 1.5 | 0.65 | 0.605
2.5 µM | 1.67 | 1.02 | 0.158 | 1.26 | 2.2 | 0.553 | 0.302
5 µM | 2.18 | 0.999 | 0.193 | 1.35 | 2.87 | 0.484 | 0.348
10 µM | 1.22 | 1 | 0.284 | 1.4 | 1.85 | 0.3 | 0.373
20 µM | 0.23 | 0.997 | 0.4 | 1.24 | 0.434 | 0.107 | 0.242

CC(=O)NC[C@H]1CN(c2ccc(N3CCOCC3)c(F)c2)C(=O)O1 [Linezolid]
Conditions | fold change of Tryptamine concentration, [5] | growth, [4]
0.6125 µM | 0.966 | 1.14
1.25 µM | 0.923 | 1.05
2.5 µM | 0.894 | 1.06
5 µM | 0.77 | 0.814
10 µM | 0.51 | 0.563
20 µM | 0.0345 | -0.0339

COc1cccc(OC)c1C(=O)N[C@@H]1C(=O)N2[C@@H]1SC(C)(C)[C@@H]2C(=O)O [Methicillin sodium]
Conditions | fold change of Tryptamine concentration, [5] | growth, [4]
0.6125 µM | 1.02 | 0.843
1.25 µM | 1 | 0.888
2.5 µM | 1.01 | 0.839
5 µM | 0.915 | 0.95
10 µM | 0.779 | 0.469
20 µM | 0.417 | 0.469

Cc1ncc([N+](=O)[O-])n1CCO [Metronidazole]
Conditions | fold change of Tryptamine concentration, [5] | growth, [4]
0.6125 µM | 0.744 | 1.05
1.25 µM | 0.758 | 1.12
2.5 µM | 0.55 | 1.08
5 µM | 0.0225 | -0.0178
10 µM | 0.0206 | -0.0224
20 µM | 0.0183 | -0.023

CO[C@@]12[C@H](COC(N)=O)C3=C(C(=O)C(C)=C(N)C3=O)N1C[C@@H]1N[C@@H]12 [Mitomycin C]
Conditions | fold change of Cadaverine concentration, [3] | fold change of Putrescine concentration, [2] | growth, [1]
0.6125 µM | 1.42 | 0.929 | 0.872
1.25 µM | 1.59 | 1.35 | 0.904
2.5 µM | 1.98 | 1.27 | 0.925
5 µM | 1.94 | 1.13 | 1.05
10 µM | 1.25 | 0.82 | 0.764
20 µM | 0.41 | 0.673 | -0.0235

CC[C@@]1([C@@H]2O[C@@H]([C@H]3O[C@@](O)(CO)[C@H](C)C[C@@H]3C)C[C@@H]2C)CC[C@H]([C@]2(C)CC[C@]3(C[C@H](O)[C@@H](C)[C@@H]([C@@H](C)[C@@H](OC)[C@H](C)C(=O)O)O3)O2)O1 [Monensin sodium salt]
Conditions | fold change of Tryptamine concentration, [5] | growth, [4]
0.6125 µM | 0.986 | 0.907
1.25 µM | 0.919 | 0.829
2.5 µM | 0.785 | 0.712
5 µM | 0.555 | 0.829
10 µM | 0.39 | 0.664
20 µM | 0.267 | 0.516

CCn1cc(C(=O)O)c(=O)c2cc3c(cc21)OCO3 [Oxolinic acid]
Conditions | fold change of Tryptamine concentration, [5] | growth, [4]
0.6125 µM | 0.975 | 1.04
1.25 µM | 1.03 | 0.931
2.5 µM | 1.13 | 1.05
5 µM | 0.788 | 0.775
10 µM | 0.446 | 0.806
20 µM | 0.0475 | -0.028

CN(C)[C@@H]1C(=O)C(C(N)=O)=C(O)[C@@]2(O)C(=O)C3=C(O)c4c(O)cccc4[C@@](C)(O)[C@H]3[C@H](O)[C@@H]12 [Oxytetracycline dihydrate]
Conditions | fold change of 2-Phenylethylamine concentration, [8] | fold change of Tryptamine concentration, [7] | growth, [6]
0.6125 µM | 0.956 | 1.13 | 0.833
1.25 µM | 1.13 | 1.31 | 0.83
2.5 µM | 1.34 | 1.69 | 0.68
5 µM | 2.06 | 2.71 | 0.594
10 µM | 2.02 | 2.8 | 0.414
20 µM | 2.08 | 2.82 | 0.356

CC(C)(c1cc(Br)c(O)c(Br)c1)c1cc(Br)c(O)c(Br)c1 [TBBPA]
Conditions | fold change of Tryptamine concentration, [5] | growth, [4]
0.6125 µM | 1.18 | 1.09
1.25 µM | 1.18 | 1.16
2.5 µM | 1.18 | 1.25
5 µM | 1.27 | 1.25
10 µM | 0.379 | 0.452
20 µM | 0.0168 | -0.0298

CS(=O)(=O)c1ccc([C@@H](O)[C@@H](CO)NC(=O)C(Cl)Cl)cc1 [Thiamphenicol]
Conditions | fold change of 2-Phenylethylamine concentration, [8] | fold change of Tryptamine concentration, [7] | growth, [6]
0.6125 µM | 1.16 | 1.04 | 0.84
1.25 µM | 1.23 | 0.877 | 0.789
2.5 µM | 0.61 | 0.535 | 0.797
5 µM | 0.471 | 0.443 | 0.686
10 µM | 0.3 | 0.342 | 0.57
20 µM | 0.329 | 0.267 | 0.38

CO[C@H]1C[C@H](O[C@H]2[C@H](C)[C@@H](O[C@@H]3O[C@H](C)C[C@H](N(C)C)[C@H]3OC(C)=O)[C@@H](C)C[C@@]3(CO3)C(=O)[C@H](C)[C@@H](OC(C)=O)[C@@H](C)[C@@H](C)OC(=O)[C@@H]2C)O[C@@H](C)[C@@H]1OC(C)=O [Troleandomycin]
Conditions | fold change of Tryptamine concentration, [5] | growth, [4]
0.6125 µM | 1.07 | 1.05
1.25 µM | 1.17 | 1.01
2.5 µM | 1.21 | 0.886
5 µM | 1.21 | 0.87
10 µM | 0.983 | 0.89
20 µM | 0.344 | 0.236
